Where two headings read alike, the source gives them in different places.
How the values were obtained:
[1] = cited from earlier work
clinical DILI in man = settings: cited from earlier work
[2] = ref DrugBank and Prescribers' Digital Reference database; cited from earlier work
[3] = tested on: primary human hepatocytes (PHH) 3D spheroids; assay: CD-spheroid hepatotoxicity: ATP viability (CellTiter-Glo) of PHH 3D spheroids after 14 days repeated exposure at 1×, 5×, 20× cmax
[4] = tested on: PHH spheroids (hanging-drop); settings: cited from earlier work
PHH 2D sandwich cultures = settings: cited from earlier work
in vitro = settings: human
[5] = tested on: primary human hepatocytes (PHH) 3D spheroids
[6] = tested on: C57BL/6 mouse primary hepatocyte 3D spheroids; assay: Animal hepatocyte spheroid hepatotoxicity (ATP viability, 14 days), C57BL/6 (BL6) mouse; format: cell-based; settings: C57BL/6 mouse hepatocyte spheroids, 1×, 5×, 20× human cmax, 14 days
[7] = tested on: Gottingen minipig primary hepatocyte 3D spheroids; assay: Animal hepatocyte spheroid hepatotoxicity (ATP viability, 14 days), minipig; format: cell-based; settings: minipig hepatocyte spheroids, 1×, 5×, 20× human cmax, 14 days
[8] = tested on: CD1 mouse primary hepatocyte 3D spheroids; assay: Animal hepatocyte spheroid hepatotoxicity (ATP viability, 14 days), CD1 mouse; format: cell-based; settings: CD1 mouse hepatocyte spheroids, 1×, 5×, 20× human cmax, 14 days
[9] = tested on: Wistar rat primary hepatocyte 3D spheroids; assay: Animal hepatocyte spheroid hepatotoxicity (ATP viability, 14 days), Wistar rat; format: cell-based; settings: Wistar rat hepatocyte spheroids, 1×, 5×, 20× human cmax, 14 days
[10] = tested on: rhesus monkey primary hepatocyte 3D spheroids; assay: Animal hepatocyte spheroid hepatotoxicity (ATP viability, 14 days), rhesus monkey; format: cell-based; settings: rhesus monkey hepatocyte spheroids, 1×, 5×, 20× human cmax, 14 days
[11] = therapeutic total cmax, ref PMID
[12] = FDA drug labeling DILI concern, ref Chen et al., 2011
[13] = FDA drug labeling DILI score, ref Chen et al., 2011
[14] = clinical DILI classification in man (POS/NEG)
[15] = clinical DILI classification used in this study, Supplementary Table 2, ref Chen et al., 2011, Guo et al., 2005, O'Brien et al., 2006, Sakatis et al., 2012, Suzuki et al., 2010, Xu et al., 2008
[16] = clinical DILI classification, Supplementary Table 1, ref Chen et al., 2011, Guo et al., 2005, O'Brien et al., 2006, Sakatis et al., 2012, Suzuki et al., 2010, Xu et al., 2008
[17] = reported pattern of liver damage, Supplementary Table 2, ref literature
[18] = PHH spheroids in chemically defined conditions, 20x Cmax
[19] = PHH hanging-drop spheroids, 100x Cmax, ref Proctor 2017
[20] = PHH 2D sandwich cultures, 100x Cmax, ref Xu 2008
[21] = clinical DILI classification, ref Xu et al. (2008)
[22] = DILI classification score, ref Guo et al. (2005)

| Compound | Cmax [1, 11] [nM] | FDA (0-8) (clinical DILI in man; [13]) | DILI in vivo (clinical DILI in man; [14]) | Classified as (clinical DILI in man; [15]) | DILI in vivo (clinical DILI in man; [16]) | Type of DILI (clinical DILI in man; [17]) | Extent of hepatic metabolism [2] | Chemically defined spheroids (this study) 20x [3, 18] | Hanging-drop spheroids (Proctor 2017) 100x [4, 19] | 2Dsw (Xu 2008) 100x (PHH 2D sandwich cultures; [20]) | Classified as (clinical DILI in man; in vivo) | Clinical DILI class (panel heading of Figure 4) (clinical DILI in man; in vivo) | DILI in vivo (clinical DILI in man; in vivo) | FDA (0-8) (clinical DILI in man; in vivo) | FDA (Severity) (clinical DILI in man; in vivo) | Sakatis et al. (2012) (clinical DILI in man; in vivo) | Suzuki et al. (2010) (clinical DILI in man; in vivo) | Type of DILI (clinical DILI in man; in vivo) | Xu et al. (2008) (clinical DILI in man; in vivo) | Chemically defined spheroids (this study) 20x [5] | other results |
| --- | --- | --- | --- | --- | --- | --- | --- | --- | --- | --- | --- | --- | --- | --- | --- | --- | --- | --- | --- | --- | --- |
| COC(c1ccccc1)(c1ccccc1)[C@H](Oc1nc(C)cc(C)n1)C(=O)O [Ambrisentan] | 2270 | 7 | NEG | NEG | NEG | Non-hepatotoxic | Extensive | Negative | Negative |  |  |  |  |  |  |  |  |  |  |  | FDA (Severity) (clinical DILI in man; [12]): less DILI concern; Clinical DILI classification (Figure 5) (clinical DILI in man; structural analogue pairs, Figure 5, ref Chen et al., 2011, Xu et al., 2008 and others): DILI negative; hepatotoxicity evaluation in CD-spheroids ([3]; PHH spheroids, 1×, 5×, 20× cmax, 14 days repeated exposure, ATP): did not result in a significant reduction of hepatocyte viability |
| Cn1cnc([N+](=O)[O-])c1Sc1ncnc2nc[nH]c12 [Azathioprine] | 7210 |  |  |  |  |  | Extensive |  | Positive | Positive | POS | High DILI concern | POS | 5 | less DILI concern | Hepatotoxic | 1 | Cholestatic injury or Mixed hepatitis | Positive | Positive | Guo et al. (2005) (clinical DILI in man; in vivo): 3; O'Brien et al. (2003) (clinical DILI in man; in vivo): Moderately; viability at 14 days, 1 × cmax (in vitro): < 10% |
| CC(CCc1ccc(O)cc1)NCCc1ccc(O)c(O)c1 (stereo not shown) [Dobutamine] | 1340 | 0 | NEG | NEG | NEG | Non-hepatotoxic | Extensive | Negative |  | Negative |  |  |  |  |  |  |  |  |  |  | FDA (Severity) (clinical DILI in man; [12]): no DILI concern; Xu et al. (2008) (clinical DILI in man; [21]): Negative |
| CC(=O)N1CCN(c2ccc(OCC3COC(Cn4ccnc4)(c4ccc(Cl)cc4Cl)O3)cc2)CC1 (stereo not shown) [Ketoconazole] |  |  |  |  |  |  | Extensive |  | Positive |  | POS | Severe DILI | POS | 8 | most DILI concern | Hepatotoxic | 2 | Hepatocellular injury or Cholestatic injury |  | Positive | Guo et al. (2005) (clinical DILI in man; in vivo): 3; O'Brien et al. (2003) (clinical DILI in man; in vivo): Severely; viability at 14 days, 1 × cmax (in vitro): < 10% |
| CC(CCc1ccccc1)NCC(O)c1ccc(O)c(C(N)=O)c1 (stereo not shown) [Labetalol] | 2680 |  |  |  |  |  | Extensive |  |  | Positive | POS | Severe DILI | POS | 8 | most DILI concern | Hepatotoxic | 3 | Hepatocellular injury | Positive | Negative | hepatotoxicity detection in 2D sandwich cultures of PHH (PHH 2D sandwich cultures; 100× cmax, 24 h, high content imaging, ref Xu et al., 2008): flagged as hepatotoxic; reactive oxygen species levels in 2D sandwich cultures of PHH (PHH 2D sandwich cultures; ref Xu et al., 2008): only slight increases in reactive oxygen species levels; O'Brien et al. (2003) (clinical DILI in man; in vivo): Severely; viability at 14 days, 20 × cmax (in vitro): > 100%; hepatotoxicity evaluation in CD-spheroids [5]: predicted to be DILI negative |
| C1CCC(C(CC2CCCCN2)C2CCCCC2)CC1 (stereo not shown) [Perhexiline] |  | Withdrawn | POS | POS | POS | Hepatocellular injury | Extensive |  | Positive | Positive |  |  |  |  |  |  |  |  |  | Positive | Suzuki et al. (2010) (clinical DILI in man; DILI classification score, ref Suzuki et al. (2010)): 3; Xu et al. (2008) (clinical DILI in man; [21]): Positive; Sakatis et al. (2012) (clinical DILI in man; clinical hepatotoxicity classification, ref Sakatis et al. (2012)): Hepatotoxic; hepatotoxicity evaluation in spheroids [6]: flagged as hepatotoxic; hepatotoxicity evaluation in spheroids [7]: flagged as hepatotoxic; hepatotoxicity evaluation in spheroids [8]: flagged as hepatotoxic; hepatotoxicity evaluation in spheroids [9]: flagged as hepatotoxic; hepatotoxicity evaluation in spheroids [10]: flagged as hepatotoxic |
| CC(COc1ccccc1)N(CCCl)Cc1ccccc1 (stereo not shown) [Phenoxybenzamine] |  |  |  |  |  |  |  | Negative |  |  | NEG | DILI negative | NEG | 0 | no DILI concern | non-hepatotixic |  | Non-hepatotoxic | Negative |  | Cmax ([1]; human, in vivo): 180 nM; 2Dsw (Xu 2008) 100x (PHH 2D sandwich cultures): Negative; Hanging-drop spheroids (Proctor 2017) 100x [4]: Negative |
| CC(CN1c2ccccc2Sc2ccccc21)N(C)C (stereo not shown) [Promethazine] | 60 | 5 | NEG | NEG | NEG | Non-hepatotoxic | Extensive |  |  | Negative |  |  |  |  |  |  |  |  |  | Negative | Guo et al. (2005) (clinical DILI in man; [22]): 3; Xu et al. (2008) (clinical DILI in man; [21]): Negative; hepatotoxicity evaluation in spheroids [9]: indicated toxicity |
| O=C(c1ccc(OCCN2CCCCC2)cc1)c1c(-c2ccc(O)cc2)sc2cc(O)ccc12 [Raloxifene] | 1 |  |  |  |  |  |  |  |  | Negative | NEG | DILI negative | NEG | 0 |  | non-hepatotixic |  | Non-hepatotoxic | Negative | Negative | hepatotoxicity evaluation in spheroids [8]: incorrectly flagged as hepatotoxic; hepatotoxicity evaluation in spheroids [10]: mild but significant toxicity |
| Nc1c2c(nc3ccccc13)CCCC2 [Tacrine] |  |  |  |  |  |  |  |  |  |  | POS | High DILI concern | POS |  |  |  |  | Hepatocellular injury |  | Negative | Cmax ([1]; human, in vivo): 70 nM; 2Dsw (Xu 2008) 100x (PHH 2D sandwich cultures): Negative; viability at 14 days, 20 × cmax (in vitro): > 100%; Hanging-drop spheroids (Proctor 2017) 100x [4]: Negative |
| Cn1nnc2c(C(N)=O)ncn2c1=O [Temozolomide] | 26800 | 4 | NEG | NEG | NEG | Non-hepatotoxic | Minimal | Negative |  | Negative |  |  |  |  |  |  |  |  |  |  | Guo et al. (2005) (clinical DILI in man; [22]): 1; Xu et al. (2008) (clinical DILI in man; [21]): Negative |
| Cc1ccc(C(=O)c2cc(O)c(O)c([N+](=O)[O-])c2)cc1 [Tolcapone] | 47600 |  |  |  |  |  | Extensive |  | Positive |  | POS | Severe DILI | POS | 8 | most DILI concern |  | 3 | Hepatocellular injury or Mixed hepatitis |  | Positive | Guo et al. (2005) (clinical DILI in man; in vivo): 3; viability at 14 days, 1 × cmax (in vitro): < 10% |
| Aflatoxin B1 |  |  |  |  |  |  |  |  |  |  | POS |  | POS |  |  |  |  | Hepatocellular injury |  |  | Cmax ([1]; human, in vivo): 30 nM; Chemically defined spheroids (this study) 20x [3]: Positive |
